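Where inhibition never reached the appropriate level, the endpoint shown equals the highest concentration tested. Otherwise, values were interpolated linearly from a five-concentration, 48-hour dose response in 96-well plates. GI50 = concentration required for 50% inhibition of growth.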 Active and inactive are the calls of the source. No stated cut-off is given here; in the data, active = GI50 up to about 1.1 µM and inactive = higher.
Experiments:
Test in all cases: inhibition of tumour cell growth, NCI panel, 48 h
MDA-N = system: MDA-N
Malme-3M = system: Malme-3M
HT-29 = system: HT-29
SF-268 = system: SF-268
HOP-92 = system: HOP-92
HOP-62 = system: HOP-62
SK-MEL-28 = system: SK-MEL-28
OVCAR-3 = system: OVCAR-3
K562 = system: K562
TK-10 = system: TK-10
M14 = system: M14
SN12C = system: SN12C
RXF 393 = system: RXF 393
SNB-75 = system: SNB-75
SK-MEL-5 = system: SK-MEL-5
SNB-19 = system: SNB-19
786-0 = system: 786-0
EKVX = system: EKVX
UACC-257 = system: UACC-257
COLO 205 = system: COLO 205
SF-539 = system: SF-539
UACC-62 = system: UACC-62
ACHN = system: ACHN
A549 = system: A549
LOX IMVI = system: LOX IMVI
NCI-H522 = system: NCI-H522
IGROV-1 = system: IGROV-1
OVCAR-4 = system: OVCAR-4
SF-295 = system: SF-295
CAKI-1 = system: CAKI-1
SR = system: SR
PC-3 = system: PC-3
KM12 = system: KM12
OVCAR-8 = system: OVCAR-8
SK-MEL-2 = system: SK-MEL-2
A498 = system: A498
SW-620 = system: SW-620
MCF7 = system: MCF7
OVCAR-5 = system: OVCAR-5
NCI/ADR-RES = system: NCI/ADR-RES
NCI-H23 = system: NCI-H23
UO-31 = system: UO-31
HCT-15 = system: HCT-15
RPMI-8226 = system: RPMI-8226
NCI-H460 = system: NCI-H460
MDA-MB-231 = system: MDA-MB-231
BT-549 = system: BT-549
HCC 2998 = system: HCC 2998
DU-145 = system: DU-145
SK-OV-3 = system: SK-OV-3
U-251 = system: U-251
Hs-578T = system: Hs-578T
T47D = system: T47D
NCI-H226 = system: NCI-H226
HCT-116 = system: HCT-116
MDA-MB-435 = system: MDA-MB-435
MOLT-4 = system: MOLT-4
CCRF-CEM = system: CCRF-CEM
HL-60 = system: HL-60

For `O=C(O)CCc1nc(-c2ccccc2-n2cccc2)no1`, the GI50 (MDA-N) was 31.4 µM (inactive), the GI50 (Malme-3M) was 52.6 µM (inactive) and the GI50 (HT-29) was 57.3 µM (inactive). The GI50 (SF-268) was > 100 µM (inactive), the GI50 (HOP-92) was > 100 µM (inactive) and the GI50 (HOP-62) was > 100 µM (inactive). The GI50 (SK-MEL-28) was > 100 µM (inactive), the GI50 (OVCAR-3) was 29 µM (inactive) and the GI50 (K562) was > 100 µM (inactive). The GI50 (TK-10) was > 100 µM (inactive), the GI50 (M14) was 89.1 µM (inactive) and the GI50 (SN12C) was > 100 µM (inactive). The GI50 (RXF 393) was > 100 µM (inactive), the GI50 (SNB-75) was > 100 µM (inactive) and the GI50 (SK-MEL-5) was > 100 µM (inactive). The GI50 (SNB-19) was > 100 µM (inactive), the GI50 (786-0) was > 100 µM (inactive) and the GI50 (EKVX) was > 100 µM (inactive). For the same molecule, the GI50 (UACC-257) was > 100 µM (inactive), the GI50 (COLO 205) was > 100 µM (inactive) and the GI50 (SF-539) was > 100 µM (inactive). The GI50 (UACC-62) was > 100 µM (inactive), the GI50 (ACHN) was > 100 µM (inactive) and the GI50 (A549) was > 100 µM (inactive). The GI50 (LOX IMVI) was > 100 µM (inactive), the GI50 (NCI-H522) was 31 µM (inactive) and the GI50 (IGROV-1) was 73.1 µM (inactive). The GI50 (OVCAR-4) was 11.8 µM (inactive), the GI50 (SF-295) was 49.9 µM (inactive) and the GI50 (CAKI-1) was > 100 µM (inactive). For the same molecule, the GI50 (SR) was 5.46 µM (inactive), the GI50 (PC-3) was > 100 µM (inactive) and the GI50 (KM12) was 5.89 µM (inactive). The GI50 (OVCAR-8) was > 100 µM (inactive), the GI50 (SK-MEL-2) was > 100 µM (inactive) and the GI50 (A498) was > 100 µM (inactive). The GI50 (SW-620) was > 100 µM (inactive), the GI50 (MCF7) was 49.3 µM (inactive) and the GI50 (OVCAR-5) was > 100 µM (inactive). The GI50 (NCI/ADR-RES) was > 100 µM (inactive), the GI50 (NCI-H23) was > 100 µM (inactive) and the GI50 (UO-31) was > 100 µM (inactive). For the same molecule, the GI50 (HCT-15) was > 100 µM, the GI50 (RPMI-8226) was > 100 µM (inactive) and the GI50 (NCI-H460) was 73.6 µM (inactive). For the same molecule, the GI50 (MDA-MB-231) was > 100 µM (inactive), the GI50 (BT-549) was > 100 µM (inactive) and the GI50 (HCC 2998) was > 100 µM (inactive). For the same molecule, the GI50 (DU-145) was > 100 µM (inactive), the GI50 (SK-OV-3) was > 100 µM (inactive) and the GI50 (U-251) was > 100 µM (inactive). For the same molecule, the GI50 (Hs-578T) was > 100 µM (inactive), the GI50 (T47D) was > 100 µM (inactive) and the GI50 (NCI-H226) was > 100 µM (inactive). For the same molecule, the GI50 (HCT-116) was > 100 µM (inactive) and the GI50 (MDA-MB-435) was 16.6 µM (inactive).

`O=C(c1ccccc1)n1c(Cc2ccccc2)nc2cc(C34CC5CC(CC(C5)C3)C4)ccc21` was tested, and the GI50 (MDA-N) was 47 µM (inactive), the GI50 (Malme-3M) was 29.3 µM (inactive) and the GI50 (HT-29) was 43.6 µM (inactive). For the same molecule, the GI50 (SF-268) was > 100 µM (inactive), the GI50 (HOP-92) was 24 µM (inactive) and the GI50 (HOP-62) was 56.4 µM (inactive). For the same molecule, the GI50 (MOLT-4) was 35.9 µM (inactive), the GI50 (SK-MEL-28) was 84.3 µM (inactive) and the GI50 (K562) was > 100 µM (inactive). For the same molecule, the GI50 (TK-10) was > 100 µM (inactive), the GI50 (M14) was 43.4 µM (inactive) and the GI50 (SN12C) was 35.8 µM (inactive). For the same molecule, the GI50 (RXF 393) was 27.4 µM (inactive), the GI50 (SNB-75) was 31.6 µM (inactive) and the GI50 (SK-MEL-5) was 27 µM (inactive). The GI50 (SNB-19) was 58.1 µM (inactive), the GI50 (786-0) was 61.9 µM (inactive) and the GI50 (EKVX) was 81.8 µM (inactive). The GI50 (UACC-257) was 53.1 µM (inactive), the GI50 (COLO 205) was 27.7 µM (inactive) and the GI50 (CCRF-CEM) was 50.5 µM (inactive). For the same molecule, the GI50 (UACC-62) was 48.6 µM (inactive), the GI50 (ACHN) was 34.8 µM (inactive) and the GI50 (A549) was 37.7 µM (inactive). The GI50 (LOX IMVI) was 30.5 µM (inactive), the GI50 (NCI-H522) was 37.3 µM (inactive) and the GI50 (IGROV-1) was 53.6 µM (inactive). For the same molecule, the GI50 (OVCAR-4) was > 100 µM (inactive), the GI50 (SF-295) was 52.2 µM (inactive) and the GI50 (CAKI-1) was > 100 µM (inactive). For the same molecule, the GI50 (SR) was 39.6 µM (inactive), the GI50 (PC-3) was 49 µM (inactive) and the GI50 (KM12) was 69.7 µM (inactive). For the same molecule, the GI50 (OVCAR-8) was 37.2 µM (inactive), the GI50 (SK-MEL-2) was 31.9 µM (inactive) and the GI50 (A498) was 62.1 µM (inactive). The GI50 (SW-620) was 80.7 µM (inactive), the GI50 (MCF7) was 24.4 µM (inactive) and the GI50 (OVCAR-5) was 56.8 µM (inactive). For the same molecule, the GI50 (NCI/ADR-RES) was 31.8 µM (inactive), the GI50 (NCI-H23) was 27.4 µM (inactive) and the GI50 (UO-31) was 35.2 µM (inactive). The GI50 (HCT-15) was 18.2 µM, the GI50 (RPMI-8226) was 31.8 µM (inactive) and the GI50 (NCI-H460) was 52.7 µM (inactive). The GI50 (MDA-MB-231) was 54.2 µM (inactive), the GI50 (BT-549) was 46.5 µM (inactive) and the GI50 (HCC 2998) was 77.3 µM (inactive). The GI50 (HL-60) was 33.7 µM (inactive), the GI50 (DU-145) was 56.5 µM (inactive) and the GI50 (SK-OV-3) was 96.2 µM (inactive). For the same molecule, the GI50 (U-251) was 44.6 µM (inactive), the GI50 (Hs-578T) was > 100 µM (inactive) and the GI50 (T47D) was 36.7 µM (inactive). The GI50 (NCI-H226) was 58.3 µM (inactive), the GI50 (HCT-116) was 44.3 µM (inactive) and the GI50 (MDA-MB-435) was 92 µM (inactive).

Source: ChEMBL document CHEMBL1201862, “PubChem BioAssay data set” (2004)
